pIC50: −log10 of the molar value.
Key:
[1] = system: FCB (CQR strain of P. falciparum); experiment: SYBR Green I antiplasmodial assay, strain FCB; assay type: cell-based, Plasmodium falciparum; details: compared with CQ
Excerpt: (§1) Bennett T. N.; Paguio, M.; Gligorijevic, B.; Seudieu, C.; Kosar, A. D.; Davidson, E.; Roepe, P. D. Novel, rapid, and inexpensive cell-based quantification of antimalarial drug efficacy. Antimicrob. Agents Chemother. 2004, 48, 1807-1810; Smilkstein, M.; Sriwilaijaroen, N.; Kelly, J. X.; Wilairat, P.; Riscoe, M. Simple and inexpensive fluorescence-based technique for high-throughput antimalarial drug screening. Antimicrob. Agents Chemother. 2004, 48, 1803-1806; and Johnson, J. D.; Dennull, R. A.; Gerena, L.; Lopez-Sanchez, M.; Roncal, N. E.; Waters, N.C. Assessment and continued validation of the malaria SYBR green I-based fluorescence assay for use in malaria drug screening. Antimicrob. Agents Chemother. 2007, 51, 1926-1933. […] Drake, N. L.; Creech, H. J.; Garman, J. A.; Haywood, S. T.; Peck, R. M.; van Hook, J. O.; Walton, E. Synthetic antimalrials. The preparation of certain 4-aminoquinolines. J. Am. Chem. Soc. […] Trans. R. Soc. Trop. Med. Hyg. […] J. Parasitol. 1983, 69, 97-105. The selectivity index provides a quantitative measure of the antimalarial activity against CQR strains relative to that against sensitive strains and thus indicates promising drug discovery leads. […] This can be combined with the introduction of a third basic amino function which should further favor accumulation of the drug within the acidic food vacuole of the parasite.
(§2) Drug activities were assessed and IC50 were quantified essentially as described previously. Delarue, S.; Girault, S.; Maes, L.; Debreu-Fontaine, M. A.; Labaeid, M.; Grellier, P.; Sergheraert, C. Synthesis and in vitro and in vivo antimalarial activity of new 4-anilinoquinolines. J. Med. Chem. 2001, 44, 2827-2833; and O'Neill, P. M.; Willock, D. J.; Hawley, S. R.; Bray, P. G.; Storr, R. C.; Ward, S. A.; Park, B. K. Synthesis, antimalarial activity, and molecular modeling of tebuquine analogues. J. Med. Chem. 1997, 40, 437-448. The aminoquinolines were diluted using complete media under sterile conditions and plated in a 96 well plate format. Sorbitol synchronized cultures were utilized with >95% of the parasites at the ring stage. Cultures were diluted to give a working stock of 0.5% parasitemia and 2% hematocrit (final hematocrit 1% & 0.5% Parasitemia). The plates were incubated for 72 h at 37° C. After 72 h, 50 μL of 10×SYBR green I dye was added to each well, and the plate was incubated for 1 h at 37° C. Fluorescence was measured at 530 nm (490 nm excitation) using a spectra geminiEM plate reader. Data analysis was performed using sigma plot 9.0 software after downloading data in Excel format.

[2] = system: Dd2 (chloroquine resistant strain of P. falciparum); experiment: SYBR Green I antiplasmodial assay, strain Dd2; assay type: cell-based, Plasmodium falciparum; details: for activity against the CQ resistant strain Dd2 in comparison with CQ: compared with CQ
Excerpt: as §1
The antiplasmodial activity of these compounds was measured versus a CQS (HB3) and a CQR (Dd2) strain using a standardized, inexpensive assay based on SYBR Green I intercalation. Bennett T. N.; Paguio, M.; Gligorijevic, B.; Seudieu, C.; Kosar, A. D.; Davidson, E.; Roepe, P. D. Antimicrob. Agents Chemother. 2004, 48, 1807-1810; Smilkstein, M.; Sriwilaijaroen, N.; Kelly, J. X.; Wilairat, P.; Riscoe, M. Antimicrob. Agents Chemother. 2004, 48, 1803-1806; and Johnson, J. D.; Dennull, R. A.; Gerena, L.; Lopez-Sanchez, M.; Roncal, N. E.; Waters, N.C. Antimicrob. Agents Chemother. 2007, 51, 1926-1933. […] De, D.; Krogstad, F. M.; Cogswell, F. B.; Krogstad, D. J. Am. J. Trop. Med. Hyg. 1996, 55, 579-583. […] The basic tertiary amino function in the side chain is commonly believed to be crucial for the accumulation of the drug within the acidic food DV.
as §2

[3] = system: CQS and CQR strains of P. falciparum; details: cited from earlier work; for antimalarial activity against certain CQS and CQR strains relative to chloroquine, reported by Jensen: diastereomeric mixtures
[4] = system: CQS (HB3, GCO3) and CQR (Dd2, FCB) strains of P. falciparum; experiment: SYBR Green I antiplasmodial assay, several CQS and CQR strains; assay type: cell-based, Plasmodium falciparum; details: for activity vs. both CQR and CQS strains relative to 93: FIG. 23
Excerpt: as §1
Bennett T. N.; Paguio, M.; Gligorijevic, B.; Seudieu, C.; Kosar, A. D.; Davidson, E.; Roepe, P. D. Novel, rapid, and inexpensive cell-based quantification of antimalarial drug efficacy. Antimicrob. Agents Chemother. 2004, 48, 1807-1810; Smilkstein, M.; Sriwilaijaroen, N.; Kelly, J. X.; Wilairat, P.; Riscoe, M. Simple and inexpensive fluorescence-based technique for high-throughput antimalarial drug screening. Antimicrob. Agents Chemother. 2004, 48, 1803-1806; and Johnson, J. D.; Dennull, R. A.; Gerena, L.; Lopez-Sanchez, M.; Roncal, N. E.; Waters, N.C. Assessment and continued validation of the malaria SYBR green I-based fluorescence assay for use in malaria drug screening. Antimicrob. Agents Chemother. 2007, 51, 1926-1933.
Drug activities were assessed and IC50 were quantified essentially as described previously. Delarue, S.; Girault, S.; Maes, L.; Debreu-Fontaine, M. A.; Labaeid, M.; Grellier, P.; Sergheraert, C. Synthesis and in vitro and in vivo antimalarial activity of new 4-anilinoquinolines. J. Med. Chem. 2001, 44, 2827-2833; and O'Neill, P. M.; Willock, D. J.; Hawley, S. R.; Bray, P. G.; Storr, R. C.; Ward, S. A.; Park, B. K. Synthesis, antimalarial activity, and molecular modeling of tebuquine analogues. J. Med. Chem. 1997, 40, 437-448.

SMILES | potency against FCB in comparison with CQ [1] | activity against the CQ resistant strain Dd2 in comparison with CQ [2] | further results
CCN(CC)CCCN(CCCN)c1ccnc2cc(Cl)ccc12 [4b, N-(7-Chloro-4-quinolyl)-N-(3-diethylaminopropyl)-1,3-diaminopropane] | significantly more potent | clearly superior activity | 
CCN(CC)CCCN(CC)CCNc1ccnc2cc(Cl)ccc12 [5a, N-(7-Chloro-4-quinolyl)-N-ethyl-N-(3-diethylaminopropyl)-1,2-diaminoethane] | significantly more potent | clearly superior activity | 
CCN(CC)CCCN(CC)CCCNc1ccnc2cc(Cl)ccc12 [5b, N-(7-Chloro-4-quinolyl)-N-ethyl-N-(3-diethylaminopropyl)-1,3-diaminopropane] | significantly more potent | clearly superior activity | 
CCN(CC)CCCN(CC)CCCCCNc1ccnc2cc(Cl)ccc12 [5d, N-(7-Chloro-4-quinolyl)-N-ethyl-N-(3-diethylaminopropyl)-1,5-diaminopentane] | significantly more potent | clearly superior activity | 
CCNC1CCCC(N(CC)c2ccnc3cc(Cl)ccc23)C1 (centres unmarked) [16a, N-(7-Chloro-4-quinolyl)-N,N′-diethyl-1,3-diaminocyclohexane] |  | clearly superior activity | antimalarial activity against certain CQS and CQR strains relative to chloroquine, reported by Jensen [3]: higher antimalarial activity
CC(C)NC1CCCC(Nc2ccnc3cc(Cl)ccc23)C1 (centres unmarked) [16b, N-(7-Chloro-4-quinolyl)-N′-isopropyl-1,3-diaminocyclohexane] |  | clearly superior activity | 
CCNC1CCC(N(CC)c2ccnc3cc(Cl)ccc23)CC1 (centres unmarked) [17a, N-(7-Chloro-4-quinolyl)-N,N′-diethyl-1,4-diaminocyclohexane] | significantly more potent | clearly superior activity | antimalarial activity against certain CQS and CQR strains relative to chloroquine, reported by Jensen [3]: higher antimalarial activity
CC(C)NC1CCC(Nc2ccnc3cc(Cl)ccc23)CC1 (centres unmarked) [17b, N-(7-Chloro-4-quinolyl)-N′-isopropyl-1,4-diaminocyclohexane] | significantly more potent | clearly superior activity | 
CCN(CCNc1ccnc2cc(Cl)ccc12)CCNS(=O)(=O)c1cccc2cccnc12 [compound 33] |  |  | activity against Dd2 in words [2]: relatively high activity
NCCCN(C(=O)c1ccc(F)cc1NCc1ccccc1)c1ccnc2cc(Cl)ccc12 [compound 53, N-(7-Chloro-4-quinolyl)-N-(2-benzylamino-4-fluorobenzoyl)-1,3-diaminopropane] |  |  | activity against Dd2 compared with HB3 [2]: significantly more active against Dd2 than HB3
CCNCCNc1ccnc2cc(Cl)ccc12 [compound 81, N-(7-Chloro-4-quinolyl)-N′-ethyl-1,2-diaminoethane] |  |  | IC50 vs. CQR strains, earlier reports [3]: high IC50
CCNCCCNc1ccnc2cc(Cl)ccc12 [compound 82, N-(7-Chloro-4-quinolyl)-N′-ethyl-1,3-diaminopropane] |  |  | IC50 vs. CQR strains, earlier reports [3]: high IC50
CCN(CC)CCNc1ccnc2cc(Cl)ccc12 [compound 86, N-(7-Chloro-4-quinolyl)-N′,N′-diethyl-1,2-diaminoethane] |  |  | IC50 vs. CQR strains, earlier reports [3]: substantially lower IC50
CCN(CC)CCCNc1ccnc2cc(Cl)ccc12 [compound 87, N-(7-Chloro-4-quinolyl)-N′,N′-diethyl-1,3-diaminopropane] |  |  | IC50 vs. CQR strains, earlier reports [3]: substantially lower IC50
CCN(CC)CCCCCOc1ccnc2cc(Cl)ccc12 [compound 94, O-(7-Chloro-4-quinolyl)-5-(N,N-diethylamino)pentanol] |  |  | pIC50 ([4]; Plasmodium falciparum, read-out: IC50 vs. CQR parasites): ~6.00
CCN(CC)CC(CN(CC)CC)Oc1ccnc2cc(Cl)ccc12 [compound 101, 7-Chloro-4-(1′,3′-bis(diethylamino)-2′-propoxy)quinoline] |  |  | activity vs. both CQR and CQS strains relative to 93 [4]: significantly less active
CCN(CC)CCCCC(CCCCN(CC)CC)Oc1ccnc2cc(Cl)ccc12 [compound 103, 7-Chloro-4-(1′,9′-bis(diethylamino)-5′-nonoxy)quinoline] |  |  | activity vs. both CQR and CQS strains relative to 93 [4]: improved activity
CCNCCCC(C)Nc1ccnc2cc(Cl)ccc12 (centres unmarked) [desethyl CQ, reference compound] |  |  | activity vs. some CQR strains relative to CQ, previous studies ([3]; some CQR strains): lower activity
